Source: patent US20260250290A1 (BRISTOL-MYERS SQUIBB COMPANY, priority 2023, published 2026)
Structures can show the parent of a compound that is named as a salt.

Target: T1, full length SGK1 (Homo sapiens, UniProt O00141)
T1 construct: 125 μM full length SGK1 (Life Technologies Part #PR7358A); purchased Life Technologies PR7358A
T1 sequence (O00141 1-431): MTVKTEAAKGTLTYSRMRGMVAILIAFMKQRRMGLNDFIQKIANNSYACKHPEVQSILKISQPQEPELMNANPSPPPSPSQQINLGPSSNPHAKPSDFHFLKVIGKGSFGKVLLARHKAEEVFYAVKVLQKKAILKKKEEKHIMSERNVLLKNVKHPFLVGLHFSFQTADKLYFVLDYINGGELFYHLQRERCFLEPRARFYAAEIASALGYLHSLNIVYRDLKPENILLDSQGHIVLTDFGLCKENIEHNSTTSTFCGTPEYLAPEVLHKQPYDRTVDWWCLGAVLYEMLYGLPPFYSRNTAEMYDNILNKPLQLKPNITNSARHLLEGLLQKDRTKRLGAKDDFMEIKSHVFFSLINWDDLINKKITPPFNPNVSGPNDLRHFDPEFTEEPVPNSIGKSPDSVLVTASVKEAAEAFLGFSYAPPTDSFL
Assay: SGK1 inhibition Assay A (Caliper LabChip electrophoretic separation of fluorescent peptide substrate and phosphorylated product)
Format: biochemical
Details: Assay A; 20 μM ATP, 40 min incubation; read-out: SGK1 IC50

Row | Compound | IC50 [nM]
1 | CC(=O)N1CC=C(c2cc(N3CCC[C@@H](NC(=O)C4=NNC(=O)CC4)C3)c3c(N)ncnn23)C1 [Example 464, (R)-N-(1-(7-(1-acetyl-2,5-dihydro-1H-pyrrol-3-yl)-4-aminopyrrolo[2,1-f][1,2,4]triazin-5-yl)piperidin-3-yl)-6-oxo-1,4,5,6-tetrahydropyridazine-3-carboxamide] | 636
2 | COc1ccc2[nH]c(C(=O)N[C@@H]3CCCN(c4cc(C5=CCN(C(C)=O)C5)n5ncnc(N)c45)C3)cc2c1 [Example 491, (R)-N-(1-(7-(1-acetyl-2,5-dihydro-1H-pyrrol-3-yl)-4-aminopyrrolo[2,1-f][1,2,4]triazin-5-yl)piperidin-3-yl)-5-methoxy-1H-indole-2-carboxamide] | 6
3 | CC(=O)N1CC=C(c2cc(N3CCC[C@@H](NC(=O)c4sc(C5CC5)cc4OCCN(C)C)C3)c3c(N)ncnn23)C1 [Example 370, (R)—N-(1-(7-(1-acetyl-2,5-dihydro-1H-pyrrol-3-yl)-4-aminopyrrolo[2,1-f][1,2,4]triazin-5-yl)piperidin-3-yl)-5-cyclopropyl-3-(2-(dimethylamino)ethoxy)thiophene-2-carboxamide] | 18
4 | CN1CCN(c2cccc(C(=O)N[C@@H]3CCCN(c4cc(-c5ccc(-n6cncn6)nc5)n5ncnc(N)c45)C3)n2)CC1 [Example 800, (R)-N-(1-(7-(6-(1H-1,2,4-triazol-1-yl)pyridin-3-yl)-4-aminopyrrolo[2,1-f][1,2,4]triazin-5-yl)piperidin-3-yl)-6-(4-methylpiperazin-1-yl)picolinamide] | 17
5 | CS(=O)(=O)c1ccc(-c2cc(N3CCC[C@@H](NC(=O)c4cc[nH]c(=O)c4)C3)c3c(N)ncnn23)cc1 [Example 43, (R)-N-(1-(4-amino-7-(4-(methylsulfonyl)phenyl)pyrrolo[2,1-f][1,2,4]triazin-5-yl)piperidin-3-yl)-2-oxo-1,2-d1Hydropyridine-4-carboxamide, TFA] | 79
6 | Cc1ccc(C(=O)N[C@@H]2CCCN(c3c(Cl)c(-c4ccc(S(C)(=O)=O)cc4)n4ncnc(N)c34)C2)s1 [Example 195, N-[(3R)-1-[4-amino-6-chloro-7-(4-methanesulfonylphenyl)pyrrolo[2,1-f][1,2,4]triazin-5-yl]piperidin-3-yl]-5-methylthiophene-2-carboxamide] | 107
7 | CN(C)CCOc1cc(Cl)sc1C(=O)N[C@@H]1CCCN(c2cc(-c3ccnc(C(F)F)c3)n3ncnc(N)c23)C1 [Example 340, (R)—N-(1-(4-amino-7-(2-(difluoromethyl)pyridin-4-yl)pyrrolo[2,1-f][1,2,4]triazin-5-yl)piperidin-3-yl)-5-chloro-3-(2-(dimethylamino)ethoxy)thiophene-2-carboxamide] | 3
8 | Nc1ncnn2c(C3=CCN(C(=O)C4(F)CC4)C3)cc(N3CCC[C@@H](NC(=O)c4sc(Cl)cc4OCCN4CCOCC4)C3)c12 [Example 263, (R)-N-(1-(4-amino-7-(1-(1-fluorocyclopropane-1-carbonyl)-2,5-dihydro-1H-pyrrol-3-yl)pyrrolo [2,1-f][1,2,4]triazin-5-yl)piperidin-3-yl)-5-chloro-3-(2-morpholinoethoxy)thiopbene-2-carboxamide] | 12
9 | COC(=O)N1CC=C(c2cc(N3CCC[C@@H](NC(=O)c4sc(Cl)cc4OCCN4CCOCC4)C3)c3c(N)ncnn23)C1 [Example 185, methyl (R)-3-(4-amino-5-(3-(5-chloro-3-(2-morpholinoethoxy)thiophene-2-carboxamido)piperidin-1-yl)pyrrolo[2,1-f][1,2,4]triazin-7-yl)-2,5-dihydro-1H-pyrrole-1-carboxylate, 2 TFA] | 43
10 | COc1cc(C(=O)N[C@@H]2CCCN(c3cc(-c4ccc(S(C)(=O)=O)cc4)n4ncnc(N)c34)C2)sn1 [Example 71, (R)-N-(1-(4-amino-7-(4-(methylsulfonyl)phenyl)pyrrolo[2,1-f][1,2,4]triazin-5-yl)piperidin-3-yl)-3-methoxyisothiazole-5-carboxamide] | 6
11 | CC(=O)N1CC=C(c2cc(N3CCC[C@@H](NC(=O)c4cccc(-n5cnnc5)c4)C3)c3c(N)ncnn23)C1 [Example 257, (R)—N-(1-(7-(1-acetyl-2,5-dihydro-1H-pyrrol-3-yl)-4-aminopyrrolo[2,1-f][1,2,4]triazin-5-yl)piperidin-3-yl)-3-(4H-1,2,4-triazol-4-yl)benzamide, TFA] | 65
12 | Nc1ncnn2c(-c3ccc4nnnn4c3)cc(N3CCC[C@@H](NC(=O)c4ccc(Cl)s4)C3)c12 [Example 244, (R)-N-(1-(4-amino-7-(tetrazolo[1,5-a]pyridin-6-yl)pyrrolo[2,1-f][1,2,4]triazin-5-yl)piperidin-3-yl)-5-chlorothiophene-2-carboxamide] | 1
13 | CS(=O)(=O)c1ccc(-c2cc(N3CCC[C@@H](NC(=O)c4ccnc(Br)c4)C3)c3c(N)ncnn23)cc1 [Example 86, (R)-N-(1-(4-amino-7-(4-(methylsulfonyl)phenyl)pyrrolo[2,1-f][1,2,4]triazin-5-yl)piperidin-3-yl)-2-bromoisonicotinamide, TFA] | 9

Second part, the compound after the results:

Row | IC50 [nM] | Compound
14 | 6 | CC(=O)N1CC=C(c2cc(N3CCC[C@@H](NC(=O)c4ccc(-c5cncc(C#N)c5)s4)C3)c3c(N)ncnn23)C1 [Example 551, (R)-N-(1-(7-(1-acetyl-2,5-dihydro-1H-pyrrol-3-yl)-4-aminopyrrolo[2,1-f][1,2,4]triazin-5-yl)piperidin-3-yl)-5-(5-cyanopyridin-3-yl)thiophene-2-carboxamide]
15 | 51 | CC(=O)N1CC=C(c2cc(N3CCC[C@@H](NC(=O)c4sc5ccccc5c4OC4CCN(C(=O)OC(C)(C)C)CC4)C3)c3c(N)ncnn23)C1 [Example 653, tert-butyl (R)-4-((2-((1-(7-(1-acetyl-2,5-dihydro-1H-pyrrol-3-yl)-4-aminopyrrolo[2,1-f][1,2,4]triazin-5-yl)piperidin-3-yl)carbamoyl)benzo[b]thiophen-3-yl)oxy)piperidine-1-carboxylate]
16 | 148 | Nc1ncnn2c(-c3ccc(=O)n(C(F)F)c3)cc(N3CCC[C@@H](NC(=O)c4ccc(C(F)F)s4)C3)c12 [Example 527, (R)-N-(1-(4-amino-7-(1-(difluoromethyl)-6-oxo-1,6-dihydropyridin-3-yl)pyrrolo[2,1-f][1,2,4]triazin-5-yl)piperidin-3-yl)-5-(difluoromethyl)thiophene-2-carboxamide]
17 | 44 | CC(=O)N1CC=C(c2cc(N3CCC[C@@H](NC(=O)c4cccc(N5CCN(C)C(C)C5)n4)C3)c3c(N)ncnn23)C1 (stereo partly drawn) [Example 777, N-((R)-1-(7-(1-acetyl-2,5-dihydro-1H-pyrrol-3-yl)-4-aminopyrrolo[2,1-f][1,2,4]triazin-5-yl)piperidin-3-yl)-6-(3,4-dimethylpiperazin-1-yl)picolinamide]
18 | 118 | N#Cc1ncc(-c2cc(N3CCC[C@@H](NC(=O)c4ccc(C(F)F)s4)C3)c3c(N)ncnn23)cc1F [Example 523, (R)-N-(1-(4-amino-7-(6-cyano-5-fluoropyridin-3-yl)pyrrolo[2,1-f][1,2,4]triazin-5-yl)piperidin-3-yl)-5-(difluoromethyl)thiophene-2-carboxamide]
19 | 477 | CC(=O)N1CC=C(c2cc(N3CCC[C@@H](NC(=O)N4CC[C@H](O)C4)C3)c3c(N)ncnn23)C1 [Example 875, (S)-N-((R)-1-(7-(1-acetyl-2,5-dihydro-1H-pyrrol-3-yl)-4-aminopyrrolo[2,1-f][1,2,4]triazin-5-yl)piperidin-3-yl)-3-hydroxypyrrolidine-1-carboxamide]
20 | 3 | COC(=O)N1CC=C(c2cc(N3CCC[C@@H](NC(=O)c4sc(Cl)cc4O[C@@H]4C[C@H]5CC[C@@H](C4)N5C)C3)c3c(N)ncnn23)C1 [Example 613, methyl 3-(4-amino-5-((R)-3-(5-chloro-3-(((1R,3s,5S)-8-methyl-8-azabicyclo[3.2.1]octan-3-yl)oxy)thiophene-2-carboxamido)piperidin-1-yl)pyrrolo[2,1-f][1,2,4]triazin-7-yl)-2,5-dihydro-1H-pyrrole-1-carboxylate]
21 | 6 | CC(=O)N1CC=C(c2cc(N3CCC[C@@H](NC(=O)c4sc(-c5ccnc(F)c5)cc4OCCN(C)C)C3)c3c(N)ncnn23)C1 [Example 556, (R)-N-(1-(7-(1-acetyl-2,5-dihydro-1H-pyrrol-3-yl)-4-aminopyrrolo[2,1-f][1,2,4]triazin-5-yl)piperidin-3-yl)-3-(2-(dimethylamino)ethoxy)-5-(2-fluoropyridin-4-yl)thiophene-2-carboxamide]
22 | 57 | CC(=O)N1CC=C(c2cc(N3CCC[C@@H](NC(=O)c4ccnc(OCCN(C)C)c4)C3)c3c(N)ncnn23)C1 [Example 706, (R)-N-(1-(7-(1-acetyl-2,5-dihydro-1H-pyrrol-3-yl)-4-aminopyrrolo[2,1-f][1,2,4]triazin-5-yl)piperidin-3-yl)-2-(2-(dimethylamino)ethoxy) isonicotinamide]
23 | 21 | CN1CCN(c2cccc(C(=O)N[C@@H]3CCCN(c4cc(-c5ccc(=O)[nH]c5)n5ncnc(N)c45)C3)n2)CC1 [Example 798, (R)-N-(1-(4-amino-7-(6-oxo-1,6-dihydropyridin-3-yl)pyrrolo[2,1-f][1,2,4]triazin-5-yl)piperidin-3-yl)-6-(4-methylpiperazin-1-yl)picolinamide]
24 | 104 | CC(=O)N1CC=C(c2cc(N3CCC[C@@H](NC(=O)c4cc5c(s4)CCNC5)C3)c3c(N)ncnn23)C1 [Example 815, (R)—N-(1-(7-(1-acetyl-2,5-dihydro-1H-pyrrol-3-yl)-4-aminopyrrolo[2,1-f][1,2,4]triazin-5-yl)piperidin-3-yl)-4,5,6,7-tetrahydrothieno[3,2-c]pyridine-2-carboxamide TFA salt]
